Seven compounds from ChEMBL document CHEMBL2062395, “Avicholic Acid: A Lead Compound from Birds on the Route to Potent TGR5 Modulators” (ACS Med Chem Lett, 2012) can be followed below.

Series [1] in a line: Critical micelle concentration of the compound in 0.15 M NaCl water solution. In kind it is physicochemical. The note with it: buffer.
For another series, the target named is Albumin (Homo sapiens, UniProt P02768). The series is described as follows: Binding affinity to albumin by equilibrium dialysis. In kind it is ADME. Set-up: concentration or dose not given beside the values. The note with it: isolated protein.
Series [2] is described as follows: 1-Octanol/water partition coefficient, log P of the compound by conventional shake-flask method. In kind it is physicochemical.
Series [3] addresses T1, G-protein coupled bile acid receptor 1 (Homo sapiens, UniProt Q8TDU6).
T1 sequence (Q8TDU6 whole entry): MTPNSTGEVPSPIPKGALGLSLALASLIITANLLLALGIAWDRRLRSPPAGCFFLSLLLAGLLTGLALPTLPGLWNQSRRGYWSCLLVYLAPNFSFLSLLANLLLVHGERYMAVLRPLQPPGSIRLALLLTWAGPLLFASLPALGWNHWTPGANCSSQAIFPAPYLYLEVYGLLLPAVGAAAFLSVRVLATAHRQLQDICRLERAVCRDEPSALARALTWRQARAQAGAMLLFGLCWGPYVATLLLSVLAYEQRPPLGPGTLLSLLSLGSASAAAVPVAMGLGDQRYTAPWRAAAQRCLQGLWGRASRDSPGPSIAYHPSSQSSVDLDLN
The series is described as follows: Agonist activity at TGR5 expressed in NCI-H716 cells assessed as cAMP level after 60 mins by FRET analysis. In kind it is functional, cell-based.

The target of another series is T2, Bile acid receptor (Homo sapiens, UniProt Q96RI1).
T2 sequence (Q96RI1 whole entry): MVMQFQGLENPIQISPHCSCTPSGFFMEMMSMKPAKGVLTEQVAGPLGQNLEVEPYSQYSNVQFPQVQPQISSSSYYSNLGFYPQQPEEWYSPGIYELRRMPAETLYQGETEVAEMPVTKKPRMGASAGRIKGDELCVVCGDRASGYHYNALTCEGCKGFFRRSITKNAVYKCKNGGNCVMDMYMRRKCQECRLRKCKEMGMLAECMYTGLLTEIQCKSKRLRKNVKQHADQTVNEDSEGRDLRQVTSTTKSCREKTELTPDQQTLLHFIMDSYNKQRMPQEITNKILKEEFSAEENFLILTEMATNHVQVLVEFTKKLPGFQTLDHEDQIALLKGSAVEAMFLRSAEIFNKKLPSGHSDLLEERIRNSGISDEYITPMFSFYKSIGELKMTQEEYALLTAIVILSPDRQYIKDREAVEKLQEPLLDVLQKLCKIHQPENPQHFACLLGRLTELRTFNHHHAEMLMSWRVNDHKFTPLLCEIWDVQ
Put plainly: Agonist activity at GST-tagged FXR-LBD using biotinylated-SRC-1 peptide as substrate preincubated with compound for 30 mins measured after 4 hrs. Type of series: functional.

The nature of series [4]: Aqueous solubility of the compound in 0.1 M HCl water at […] by HPLC-ES-MS/MS. In kind it is physicochemical.
In the next series the test system is Liver. The series is described as follows: Drug metabolism in mouse liver assessed as taurine conjugate formation. In kind it is ADME, tissue-based.
The mark [5] stands for this setting: 1-octanol/water, read-out: logP.

Albumin, sequence (P02768 whole entry): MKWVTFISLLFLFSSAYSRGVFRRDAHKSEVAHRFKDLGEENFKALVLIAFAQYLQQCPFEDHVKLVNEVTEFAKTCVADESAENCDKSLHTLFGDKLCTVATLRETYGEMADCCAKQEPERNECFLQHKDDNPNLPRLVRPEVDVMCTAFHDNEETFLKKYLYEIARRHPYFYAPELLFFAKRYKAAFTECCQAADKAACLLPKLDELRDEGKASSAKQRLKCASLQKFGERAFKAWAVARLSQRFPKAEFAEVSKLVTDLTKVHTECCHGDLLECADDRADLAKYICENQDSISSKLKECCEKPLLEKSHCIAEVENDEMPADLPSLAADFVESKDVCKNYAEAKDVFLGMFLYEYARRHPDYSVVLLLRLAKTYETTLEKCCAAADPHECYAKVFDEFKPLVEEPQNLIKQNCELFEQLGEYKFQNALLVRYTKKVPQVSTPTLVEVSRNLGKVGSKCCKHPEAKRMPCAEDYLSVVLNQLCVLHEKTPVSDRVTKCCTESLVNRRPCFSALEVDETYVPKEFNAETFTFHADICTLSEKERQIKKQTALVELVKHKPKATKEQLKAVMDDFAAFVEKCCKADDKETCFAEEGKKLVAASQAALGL

`C[C@H](CCC(=O)O)[C@H]1CC[C@H]2[C@@H]3[C@H](O)C[C@@H]4C[C@H](O)CC[C@]4(C)[C@H]3C[C@H](O)[C@]12C` [CHOLIC ACID]: the CMC in series [1] is on record as 9.2 mM. On Albumin, this compound displayed an Activity of 50%.

With `C[C@H](CCC(=O)O)[C@H]1CC[C@H]2[C@@H]3[C@H](O)C[C@@H]4C[C@H](O)CC[C@]4(C)[C@H]3CC[C@]12C` [CHENODIOL], the CMC in series [1] is on record as 3 mM. The logP in series [2] (octanol/water) worked out at 2.2. At Albumin, the Activity is 93%.

`CC[C@H]1[C@@H](O)[C@@H]2[C@H](C[C@H](O)[C@]3(C)[C@@H]([C@H](C)C[C@H](C)C(=O)O)CC[C@@H]23)[C@@]2(C)CC[C@@H](O)C[C@@H]12` showed a CMC in series [1] of 2 mM. Further, in series [2] (setting [5]), the log partition coefficient (logP) is 1.4. The compound further showed an Activity on Albumin of 62%.

For `CC[C@H]1[C@@H](O)[C@@H]2[C@H](CC[C@]3(C)[C@@H]([C@H](C)CCC(=O)[O-])[C@@H](O)C[C@@H]23)[C@@]2(C)CC[C@@H](O)C[C@@H]12.[Na+]`, the EC50 in series [3] amounted to 0.65 µM; at Bile acid receptor, 11.5 µM. The same compound came in with a CMC in series [1] of 5.9 mM. Moreover, the logP in series [2] (setting [5]) was 1.6. In series [4], this compound displayed a solubility of 120 µM. Also, at Albumin, the Activity was found to be 83%. Moreover, the Drug metabolism entry in the series with Liver was “Active”.

With `C[C@H](CCC(=O)[O-])[C@H]1[C@H](O)C[C@H]2[C@@H]3[C@H](O)C[C@@H]4C[C@H](O)CC[C@]4(C)[C@H]3CC[C@]12C.[Na+]` [AVICHOLIC ACID SODIUM SALT], the EC50 was 160 µM in series [3] and over 100 µM on Bile acid receptor. In series [1], this compound came in with a CMC of 10 mM. The lipophilicity (logP) in series [2] (setting [5]) was found to be 1.1. In addition, the solubility in series [4] is 188 µM. The same compound had an Activity at Albumin of 58%.

As for `C[C@H](CCC(=O)O)[C@H]1[C@@H](O)C[C@H]2[C@@H]3[C@H](O)C[C@@H]4C[C@H](O)CC[C@]4(C)[C@H]3CC[C@]12C`, the EC50 in series [3] amounted to 25 µM; on Bile acid receptor it was 55 µM.

Turning to `CC[C@H]1[C@@H](O)[C@@H]2[C@H](CC[C@]3(C)[C@@H]([C@H](C)CCC(=O)O)[C@H](O)C[C@@H]23)[C@@]2(C)CC[C@@H](O)C[C@@H]12`, the EC50 in series [3] is 87 µM; at Bile acid receptor it was 22 µM.
